One data set deals with retina. The experiment in a line: 26 weeks of treatment in pigmented rats: retina. The class given is in vivo.
Data set [1] is described as follows: Study BP39055 Part 1: pharmacokinetics (AUC0-24h,ss) in SMA patients. The data set is classed as in vivo, human. Particulars: for AUC(0-t): human, in vivo, read-out: estimated AUC0-24h,ss, median. The text has this: Study BP39055 is a two-part operationally seamless, multi-center, randomized, placebo-controlled, double-blind study to investigate the safety, tolerability, pharmacokinetics (PK), pharmacodynamics (PD) and efficacy of RO7034067 in Type 2 and 3 spinal muscular atrophy (SMA) patients. The study consists of an exploratory dose-finding part (Part 1) and a confirmatory part (Part 2).
The primary objective of Part 1 is to evaluate the safety, tolerability, PK and PD of RO7034067 in patients with Type 2 and Type 3 (ambulant or non-ambulant) SMA, and to select the dose for Part 2 of the study.
Part 1 was a double-blinded, placebo-controlled, randomized (2:1 RO7034067:placebo), exploratory dose-finding study in Type 2 and Type 3 (ambulant and non-ambulant) SMA patients. This will be followed by an open-label extension (OLE) at the same dose as selected for Part 2 of the study.
Part 1 of the study enrolled patients in two age groups: • Group A: adolescent and adult patients aged 12 25 years • Group B: children aged 2 11 years RO7034067 dose levels were investigated in a staggered, dose escalation manner in both age groups.
The dose recommended by the IMC for this age group according to the target AUC0-24 h,ss of 700 ng[…]h/mL was 0.02 mg/kg (see IMC recommendation of 12 Dec. 2016 in Appendix 1); 10 patients aged 3-11 years were enrolled in Cohort B1. • At the same time point (i.e., once safety and tolerability were confirmed based on the review of at least 4 weeks of treatment at 3 mg once daily in 9 patients in Cohort A1), enrolment was opened to another cohort of 9 adult and adolescent patients (Cohort A2) receiving RO7034067 5 mg once daily (see IMC recommendation of 19 Jan. 2017 in Appendix 1). As per protocol, the higher dose level was determined such as to achieve maximum SMN protein increase, without exceeding the exposure cap (Cmax 400 ng/mL; mean AUC0 24 h,ss 2000 ng[…]h/mL); 10 patients aged 13[…]24 years were enrolled in Cohort A2. • Based on the review of a minimum of 4 weeks of treatment at 0.02 mg/kg in 9 patients enrolled in Cohort B1, the following recommendations were made by the IMC: i) to increase the dose in these patients to 0.05 mg/kg without exceeding a cap dose of 3 mg, and ii) to enroll a minimum of 9 additional patients aged 2[…]11 years at a dose of 0.05 mg/kg without exceeding a cap dose of 3 mg (Cohort B2), targeting at least 5 patients aged 2[…]6 years (see IMC recommendation of 13 Mar. […] At the same time point, enrollment was opened to another cohort of 9 patients at the dose of 0.25 mg/kg without exceeding a cap dose of 5 mg (Cohort B3), determined such as to achieve maximum Survival of Motor Neuron (SMN) protein increase, without exceeding the exposure cap (Cmax 400 ng/mL; mean AUC0-24 h,ss 2000 ng[…]h/mL); 10 patients aged 2[…]11 years were enrolled in Cohort B3. • Upon completion of at least 12 weeks of placebo-controlled treatment by a minimum of 9 patients of each cohort, the IMC reviewed all available data from the cohort to make the decision to switch placebo patients to active treatment at the dose tested in their respective cohort. Dates of the IMC decisions to switch placebo patients to active treatment in the respective cohorts are provided in Section 1.3. • For the last cohort in Part 1 (Cohort B3), all available safety, tolerability, PK and PD data following completion of a minimum of 4 weeks treatment by the 9th patient (including all available data for the 10th patient of the last cohort who was enrolled approximately 1 week after the 9th patient, and all available data from all previous cohorts) were reviewed by the IMC in order to select the dose to be administered in Part 2 of the study. This dose selection was confirmed by the external iDMC following review of the same data package. […]

A further data set relates to FoxM1. The data set is described as follows: Alternative splicing of FoxM1 in SMA Type 1 patient fibroblasts (RT-qPCR). To be noted: Homo sapiens, Fibroblast, 24 hours, read-out: EC50 for FoxM1 full-length (FL) mRNA. The data set is classed as cell-based. The protocol:
FIG. 4: Alternative Splicing of FoxM1 In Vitro • SMA Type 1 patient fibroblasts were treated with RO7034067 for 24 hours, and FoxM1 full-length (FL) and exon 9-lacking (Δ9) mRNAs were analyzed by RT-qPCR. Data represent means±SEM of 6 repetitions and are expressed as fold change vs. untreated controls.
FoxM1, a gene alternatively spliced by other splicing modifier compounds, encodes a cell cycle regulator. […] Increased abundance of the FoxM1A isoform, together with decreased abundance of FoxM1 isoforms lacking exon 9, has the capability to disturb and inhibit cell cycle progression if splicing changes are at a level that is biologically significant. Thus, RO7034067 acts in a similar way on the SMN2 and FoxM1 splicing machinery, but with opposing outcomes with regard to protein function. MADD, a gene involved in apoptosis processes, has also been identified as a secondary splice target.
A general note: Real-time PCR tracks product formation cycle by cycle.

The subject of the next data set is SMN protein. The experiment in a line: SMN protein (HTRF) in brain and quadriceps muscle of C/C-allele mice. The class given is in vivo. The method, then: FIG. 1A-FIG. 1D: Increase in SMN Protein Expression In Vivo • HET=heterogygous. • C/C-allele mice and SMNΔ7 mice were treated with RO7034067. One hour after the last dose, brains and quadriceps muscles were collected and levels of SMN protein were assessed by HTRF. FIG. 1A. SMN protein in brains of C/C-allele mice. FIG. 1B. SMN protein in brains of SMNΔ7 mice. FIG. 1C. SMN protein in quadriceps muscle of C/C-allele mice. FIG. 1D. SMN protein in quadriceps muscle of SMNΔ7 mice. Data represent means±SEM of 5-6 animals per group and are expressed as fold change vs. vehicle-treated controls. *=p<0.05, **=p<0.01, ***=p<0.001 vs. untreated controls.
Adult C/C-allele mice were treated for 10 days with vehicle or RO7034067 (1, 3 or 10 mg/kg per os [PO], daily), and PND3 SMNΔ7 mice were treated for 7 days with vehicle or RO7034067 (0.1, 0.3, 1 or 3 mg/kg intraperitoneal [IP], daily). […] In SMNΔ7 mice, the SMN protein increase was only partial in both brain and muscle, reaching approximately 43% (brain) and 55% (muscle) of protein levels in heterozygous mice.
For orientation: Time-resolved FRET reads energy transfer from a long-lived donor to a nearby acceptor.

Like-named read-outs stand apart in the source and are kept apart here.

By EC50 is commonly meant the concentration needed to bring the measured effect to its halfway point. On to `Cc1cn2nc(-c3cc(=O)n4cc(N5CCNC6(CC6)C5)ccc4n3)cc(C)c2n1` [RO7034067, 7-(4,7-diazaspiro[2.5]octan-7-yl)-2-(2,8-dimethylimidazo[1,2-b]pyridazin-6-yl)pyrido[1,2-a]pyrimidin-4-one], for which, in the data set on retina, the retinal effects result is “no evidence for any retinal effects”. The AUC(0-t) was 133 ng·h/mL in data set [1] (2-11 yr, 0.02 mg/kg); 407 ng·h/mL in data set [1] (2-11 yr, 0.05 mg/kg); 822 ng·h/mL in data set [1] (2-11 yr, 0.15 mg/kg); 1450 ng·h/mL in data set [1] (2-11 yr, 0.25 mg/kg); 1040 ng·h/mL in data set [1] (12-25 yr, 3 mg); 1610 ng·h/mL in data set [1] (12-25 yr, 5 mg). In data set [1] (selected BP39055 Part 2 dose, all patients 2-25 years of age), the “predicted mean exposure (AUC0-24h,ss)” value is recorded as 1690 ng·h/mL. Also, in the data set with FoxM1, the EC50 came to 67 ± 32 nM. In the data set on SMN protein (C/C-allele mice, 10 mg/kg), the “SMN levels in muscle compared with heterozygous mice” value is listed as “no different from those in heterozygous mice”. The “SMN protein levels in brain and muscle tissue, maximum effect” value in the data set with SMN protein (adult C/C-allele mice, 10 mg/kg PO daily, 10 days) is listed as 2-3 fold.

The values are drawn from patent US12350273B2, “Treatment of SMA” (Hoffmann-La Roche Inc., priority 2017, dated 2025).
